Source: patent US10106516B2, “PDE10 inhibitors and related compositions and methods” (Omeros Corporation, priority 2010, dated 2018)
pIC50: −log10 of the molar value.

Experiments:
PDE10 = target: T1, PDE10 (Homo sapiens, UniProt Q9Y233); assay: PDE10 biochemical assay (two-step Thompson and Appleman method or SPA); conditions: PDE10 inhibition
T1 construct: made in house; host or cells: Sf9 insect cells (baculovirus)
Protocol: In short, cAMP is spiked with (^3H)cAMP and incubated with PDE10 and various concentrations of a compound of structure (I). After the appropriate incubation time, the reaction is terminated by heating. The mixture is then subjected to treatment with snake venom phosphatase. The phosphatase hydrolyzes any AMP in the mixture, but leaves unreacted cAMP intact. Thus, by separating cAMP from the mixture and determining its concentration (by radiography), the percent of inhibition can be determined. IC50 values can be calculated by performing the experiment at several concentrations using standard graphical means. A detailed description of the actual technique used for IC50 assays as set forth in following Examples.
The phosphodiesterase (PDE) assay was performed using recombinant human PDE 1A3, 2A3, 3 catalytic region, 4 catalytic region, 5 catalytic region, 7A, 8A, 9A2, 10A1 and 11A1 enzymes expressed in a baculoviral system using Sf9 cells. PDE activity was measured using a modification of the two-step method of Thompson and Appleman described above which was adapted for 96 well plate format. […] The final assay volume was 110 μl with assay buffer (10 mM MgCl2; 40 mM Tris.HCl; pH 7.4). Reactions were initiated with enzyme and incubated with (^3H)-substrate and substance for 20 minutes at 30° C. The reaction was terminated by denaturing the enzyme (heating the reaction to 70° C. for 2 minutes). The reaction was then cooled at 4° C. for 10 minutes before the addition of snake venom (Crotalus atrox, 0.2 mg/ml) for 10 minutes at 30° C., thus allowing non-specific hydrolysis of the tritiated substrate. Separation of the remaining unhydrolysed cyclic nucleotide was achieved by a batch binding of the mixture to activated Dowex (200 μl) anion exchange resin. The anion exchange resin bound the charged nucleotides, leaving only hydrolysed (^3H) substrate in the soluble fraction. The soluble fraction (50 μl) was then added to microscint-20 (200 μl) and counted on a Top Count Plate reader. Radioactivity units were plotted against inhibitor concentration and IC50 values obtained using Graph Pad Prism software.
Alternatively, phosphodiesterase activity was measured by scintillation proximity assay (SPA) with [^3H]-cGMP as substrate. Purified PDE10 was diluted and stored in 25 mM Tris-Cl (pH 8.0)/100 mM NaCl/0.05% Tween 20/50% glycerol/3 mM DTT. Assays contained (final concentrations): 50 mM Tris-Cl (pH 7.5)/8.3 mM MgCl2/1.7 mM EGTA/0.5 mg/ml BSA/5% DMSO and 2 ng PDE10 in a final volume of 0.1 mL. Inhibition was evaluated at 8 concentrations in duplicate. Reactions were initiated by addition of enzyme and were terminated after 20 minutes at 30° C. by the addition of 50 μl of SPA beads containing Zn^++. The mixture was shaken, allowed to settle for 3 hours, and counted in a Wallac plate counter. Results (net cpm) were fitted to a four parameter logistic model using Excel Solver®.

C57BL/6 male mice [1] = assay: PCP-induced hyperactivity model of psychosis; format: in vivo; conditions: vs vehicle+PCP control
Protocol: (§1) Dosing of the compounds is by intraperitoneal (i.p.) injection or oral gavage (p.o.). Intraperitoneal injection is accomplished by restraining the animal, exposing the abdomen and inserting the needle just above the knees on the mouse's right side. Oral gavage is performed by restraining the animal in such a way that its head is tilted back and the esophagus is relatively straight. The gavage needle (20 G×1.5″, Cadence Science) is inserted into the mouth in line with the body and gently pushed along the esophagus and into the stomach. If resistance is encountered the needle is removed and reinserted.
Psychostimulant-induced hyperactivity is measured by injecting animals with PCP and monitoring the animals' activity levels in VersaMax chambers (Accuscan Instruments, Columbus, Ohio) measuring 40×40 cm. Locomotor activity is detected by photobeam breaks as the animal crosses each beam. The animal is placed in the center of the field and left undisturbed for 20 minutes to measure its spontaneous activity in a novel environment. Measurements used to assess locomotor activity include: horizontal activity, total distance traveled, vertical activity (rearing events—animal raises up on hindlimbs), rotation, stereotypy, and distance traveled in the center compared to total distance traveled (center:total distance ratio). The NMDA antagonist PCP induces a psychosis-like syndrome manifest as hyperactivity and increased stereotypic behavior. Known antipsychotics are able to reverse psychostimulant-induced hyperactivity and stereotypy.
(§2) C57BL/6 male mice were given either compound 1-1 or vehicle by intraperitoneal injection (FIG. 1) or oral gavage (FIG. 2). Twenty minutes (for i.p.) or forty minutes (for p.o.) later, they were injected with PCP (5 mg/kg, i.p.). Ten minutes later, the mice were placed in activity chambers and their locomotor activity in the horizontal dimension was monitored by infrared beam breaks for 20 min (5 consecutive 4-minute intervals (INT) as indicated).
as §2, with “2-1” for “1-1”, “3)” for “1)”, “4).” for “2).”, “40” for “forty”
as §2, with “11-1” for “1-1”, “injection. Five” for “injection (FIG. 1) or oral gavage (FIG. 2). Twenty”, “later” for “(for i.p.) or forty minutes (for p.o.) later,”

C57BL/6 male mice [2] = assay: Conditioned avoidance response (CAR) model of psychosis; format: in vivo; conditions: vs vehicle
Protocol: as §1
Conditioned avoidance response (CAR) is a behavioral test to evaluate the antipsychotic effect of a test compound. It utilizes a shuttle box (Med Associates, St. Albans, Vt.) with two identical chambers separated by a retractable door. Each chamber is fitted with a metal grid floor that is capable of delivering electric shocks independently. A computer program is used to implement the testing paradigm as well as record the animal's movement between the two chambers through infrared beam sensors. The testing paradigm is as follows. A mouse is placed into one chamber. A light (conditioned stimulus, CS) comes on. Five seconds later, mild electric shocks (0.4 mA; (unconditioned stimulus, US) are delivered to the chamber where the mouse is located (as detected by infrared beams) until the mouse escapes to the adjacent chamber or until 10 sec has elapsed. The US and CS always co-terminate. With randomized inter-trial intervals averaging 15 sec, 30 such CS-US pairing trials are given to each mouse each day. For each trial, an escape response is registered if the mouse crosses to the other chamber after being shocked (i.e., during the 10-sec US period), and an avoidance response is registered if the mouse crosses to the other chamber during the first 5-sec CS only period. The animals are trained in this paradigm for 30-40 days, during which the average percentage of avoidance responses will improve to 80-90%. […] These trained animals are then used for compound testing with the same paradigm.
C57BL/6 male mice were trained in the CAR paradigm to predict and avoid the noxious stimulus (foot shock), reaching a plateau of approximately 25 avoidance responses per 30 trials each day. […] Vehicle treatment and compound treatment were given to the same animals on alternating days, and the effect of compound in reducing avoidance response was analyzed through within-subject comparison (paired t-test).
C57BL/6 male mice were trained in the CAR paradigm to predict and avoid the noxious stimulus (foot shock), reaching a plateau of approximately 25-28 avoidance responses per 30 trials (“training plateau”) each day. […] Vehicle treatment and compound treatment were given to the same animals on alternating days, and the effect of compound in reducing avoidance response was analyzed through within-subject comparison (paired t-test).

[3] = 10 mg/kg oral gavage, 25 minutes prior to testing
[4] = 2 mg/kg oral gavage, 55 minutes prior to testing
[5] = 5 mg/kg oral gavage, 55 minutes prior to testing
[6] = 10 mg/kg oral gavage, 55 minutes prior to testing

T1 sequence (Q9Y233 1-779 isoform Q9Y233-1): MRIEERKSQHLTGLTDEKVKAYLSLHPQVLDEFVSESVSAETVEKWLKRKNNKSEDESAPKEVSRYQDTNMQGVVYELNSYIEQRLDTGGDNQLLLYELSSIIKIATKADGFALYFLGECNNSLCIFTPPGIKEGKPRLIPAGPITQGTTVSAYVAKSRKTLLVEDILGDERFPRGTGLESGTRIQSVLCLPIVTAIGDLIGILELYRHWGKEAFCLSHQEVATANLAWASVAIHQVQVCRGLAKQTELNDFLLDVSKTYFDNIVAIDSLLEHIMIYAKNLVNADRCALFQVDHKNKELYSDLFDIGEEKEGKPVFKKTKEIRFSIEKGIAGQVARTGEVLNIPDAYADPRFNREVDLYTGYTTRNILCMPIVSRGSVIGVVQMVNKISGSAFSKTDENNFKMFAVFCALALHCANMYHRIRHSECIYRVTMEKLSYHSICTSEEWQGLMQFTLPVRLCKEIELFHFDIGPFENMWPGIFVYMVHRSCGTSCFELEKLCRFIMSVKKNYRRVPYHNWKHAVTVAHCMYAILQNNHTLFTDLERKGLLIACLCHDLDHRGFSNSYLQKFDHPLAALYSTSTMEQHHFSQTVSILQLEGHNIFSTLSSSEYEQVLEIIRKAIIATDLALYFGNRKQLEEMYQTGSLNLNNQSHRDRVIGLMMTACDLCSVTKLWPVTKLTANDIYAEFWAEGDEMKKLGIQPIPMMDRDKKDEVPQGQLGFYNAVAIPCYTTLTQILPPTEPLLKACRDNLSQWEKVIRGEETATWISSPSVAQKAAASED

Row | Compound | pIC50 (PDE10) | reduction of number of avoidance responses (CAR) (C57BL/6 male mice [2]; [6]) | also measured
1 | COc1cc(-c2csc(C(=O)C(OC)c3ccc(N4CCOCC4)cc3)n2)cc(OC)c1Br (stereo not shown) [Compound 1-1, 1-(4-(4-Bromo-3,5-Dimethoxyphenyl)Thiazol-2-Yl)-2-Methoxy-2-(4-Morpholinophenyl)Ethanone] | ≥ 6.00 |  | reduction of PCP-induced hyperactivity (horizontal locomotor activity) (C57BL/6 male mice [1]; 10 mg/kg i.p., 20 min before PCP (5 mg/kg, i.p.)): significantly reduces; reduction of PCP-induced hyperactivity (horizontal locomotor activity) (C57BL/6 male mice [1]; oral gavage, dose not given, 40 min before PCP (5 mg/kg, i.p.)): effective
2 | COc1cc(-c2ccc(C(=O)C(OC)c3ccc(-c4nnc(C)s4)cc3)o2)cc(OC)c1Br (stereo not shown) [Compound 34-1, 1-(5-(4-Bromo-3,5-Dimethoxyphenyl)Furan-2-Yl)-2-Methoxy-2-(4-(5-Methyl-1,3,4-Thiadiazol-2-Yl)Phenyl)Ethanone] | ≥ 6.00 |  | reduction of number of avoidance responses (CAR) (C57BL/6 male mice [2]; [3]): significantly reduces
3 | COc1cc(-c2ccc(C(=O)C(OC)c3ccc(-c4nnc(C)o4)cc3)o2)cc(OC)c1OC (stereo not shown) [Compound 36-1, 2-Methoxy-2-(4-(5-Methyl-1,3,4-Oxadiazol-2-Yl)Phenyl)-1-(5-(3,4,5-Trimethoxyphenyl)Furan-2-Yl)Ethanone] | ≥ 6.00 |  | reduction of number of avoidance responses (CAR) (C57BL/6 male mice [2]; 5 mg/kg oral gavage, 25 minutes prior to testing): a trend that did not reach significance; reduction of number of avoidance responses (CAR) (C57BL/6 male mice [2]; [3]): a trend that did not reach significance; reduction of number of avoidance responses (CAR) (C57BL/6 male mice [2]; 15 mg/kg oral gavage, 25 minutes prior to testing): significantly reduces
4 | CCOC(C(=O)c1ccc(-c2cc(OC)c(Br)c(OC)c2)o1)c1ccc(-c2nnc(C)o2)cc1 (stereo not shown) [Compound 47-1, 1-(5-(4-Bromo-3,5-Dimethoxyphenyl)Furan-2-Yl)-2-Ethoxy-2-(4-(5-Methyl-1,3,4-Oxadiazol-2-Yl)Phenyl)Ethanone] | ≥ 6.00 | significantly reduces | reduction of number of avoidance responses (CAR) (C57BL/6 male mice [2]; [4]): a trend that did not reach significance; reduction of number of avoidance responses (CAR) (C57BL/6 male mice [2]; [5]): significantly reduces
5 | COc1cc(-c2ccc(C(=O)C(OC)c3ccc(-c4nnc(C)s4)cc3)o2)cc(OC)c1Cl (stereo not shown) [Compound 49-1, 1-(5-(4-Chloro-3,5-Dimethoxyphenyl)Furan-2-Yl)-2-Methoxy-2-(4-(5-Methyl-1,3,4-Thiadiazol-2-Yl)Phenyl)Ethanone] | ≥ 6.00 | significantly reduces | 
6 | COc1cc(-c2ccc(C(=O)C(OC)c3ccc(-c4nnc(C)o4)cc3)o2)cc(OC)c1Cl (stereo not shown) [Compound 61-1, 1-(5-(4-Chloro-3,5-Dimethoxyphenyl)Furan-2-Yl)-2-Methoxy-2-(4-(5-Methyl-1,3,4-Oxadiazol-2-Yl)Phenyl)Ethanone] | ≥ 6.00 | significantly reduces | reduction of number of avoidance responses (CAR) (C57BL/6 male mice [2]; [4]): significantly reduces; reduction of number of avoidance responses (CAR) (C57BL/6 male mice [2]; [5]): significantly reduces
7 | CCOC(C(=O)c1ccc(-c2cc(OC)c(Cl)c(OC)c2)o1)c1ccc(-c2nnc(C)o2)cc1 (stereo not shown) [Compound 63-1, 1-(5-(4-Chloro-3,5-Dimethoxyphenyl)Furan-2-Yl)-2-Ethoxy-2-(4-(5-Methyl-1,3,4-Oxadiazol-2-Yl)Phenyl)Ethanone] | ≥ 6.00 | significantly reduces | reduction of number of avoidance responses (CAR) (C57BL/6 male mice [2]; [4]): significantly reduces; reduction of number of avoidance responses (CAR) (C57BL/6 male mice [2]; [5]): significantly reduces
8 | COc1cc(-c2coc(C(=O)C(OC)c3ccc(-n4cc(C)cn4)cc3)n2)cc(OC)c1Br (stereo not shown) [Compound 65-6] | ≥ 6.00 |  | 
9 | COc1cc(-c2ccc(C(=O)C(OC)c3ccc(N4CCOCC4)cc3)o2)cc(OC)c1OC (stereo not shown) [Compound 65-7] | ≥ 6.00 |  | 
10 | COc1cc(-c2ccc(C(=O)C(OC)c3ccc(-c4nnc(C)s4)cc3)o2)cc(OC)c1OC (stereo not shown) [Compound 65-8] | ≥ 6.00 |  | 
11 | COc1cc(-c2ccc(C(=O)C(OC)c3ccc(-n4cccn4)cc3)o2)cc(OC)c1OC (stereo not shown) [Compound 65-9] | ≥ 6.00 |  | 
12 | CCOC(C(=O)c1ccc(-c2cc(OC)c(Cl)c(OC)c2)o1)c1ccc(-c2nnc(C)s2)cc1 (stereo not shown) [Compound 65-10] | ≥ 6.00 | significantly reduces | reduction of number of avoidance responses (CAR) (C57BL/6 male mice [2]; [5]): significantly reduces
13 | CCOC(C(=O)c1ccc(-c2cc(OC)c(Br)c(OC)c2)o1)c1ccc(-c2nnc(C)s2)cc1 (stereo not shown) [Compound 65-11] | ≥ 6.00 |  | 
14 | COc1cc(-c2ccc(C(=O)C(OC)c3ccc(-c4nnc(C)o4)cc3)o2)cc(OC)c1C#N (stereo not shown) [Compound 65-12] | ≥ 6.00 |  | 
15 | CCOC(C(=O)c1ccc(-c2cc(OC)c(F)c(OC)c2)o1)c1ccc(-c2nnc(C)o2)cc1 (stereo not shown) [Compound 65-13] | ≥ 6.00 |  | 
16 | COc1cc(-c2ccc(C(=O)C(OC)c3ccc(-c4nnc(C)o4)cc3)o2)cc(OC)c1O (stereo not shown) [Compound 65-15] | ≥ 6.00 |  | 
